The source of these data is patent publication US7183383B2, “Uses of collagen IV” (The University of Arkansas for Medical Sciences, priority 2002, dated 2007).

Where only a bound is given, the exact number is not on record here.

In data set [1] the test system is collagen IV deposition in renal proximal tubular cells. Put plainly: Newly deposited collagen IV (immunoprecipitation, autoradiography, densitometry). In kind it is cell-based, rabbit. How it is done: Immunoprecipitation of newly synthesized and deposited collagen IV was performed using the method of Niki et al., with some modifications (34). On days 1, 4, and 6 after sublethal S-(1,2-dichlorovinyl)-L-cysteine injury, renal proximal tubular cells were metabolically labeled for 24 hours with 25 μCi/ml of [^35S]-L-methionine. Cell monolayers were washed with PBS, solubilized for 30 minutes in lysis buffer (20 mM Tris-HCl (pH 8.8), 2 mM EDTA, 0.2 mM PMSF, 10 mM N-ethylmaleimide, 1% Triton X-100, 1% sodium deoxycholic acid, 150 mM NaCl, and 1 mM EGTA) containing protease inhibitors (25 μg/ml pepstatin A, 12.5 μg/ml leupeptin, 12.5 μg/ml aprotinin), and centrifuged at 15,000×g for 10 minutes at 4° C. The resulting supernatants (soluble fraction, cell-associated collagen) were transferred to fresh tubes, snap frozen in liquid N2, and stored at −80° C. Pelleted material (insoluble fraction, ECM-associated collagen) was resuspended in pellet solubilization buffer (20 mM Tris-HCl (pH 8.8), 2 mM EDTA, 0.2 mM PMSF, 10 mM N-ethylmaleimide, 1% sodium dodecyl sulfate, and 10 mM dithiothreitol), sonicated, boiled for 5 minutes, and incubated in the presence of iodoacetamide (25 mM) for 30 minutes at 37° C. with shaking. Samples were centrifuged at 15,000×g for 10 minutes at 4° C. Supernatants were then transferred to fresh microcentrifuge tubes, snap frozen in liquid N2, and stored at −80° C. Protein concentration in cell-associated and ECM-associated fractions was determined using a Coomassie protein microassay (Pierce, Rockford, Ill.) with BSA as the standard. Sample aliquots equaling 0.5 mg of total protein were diluted 3-fold in immunoprecipitation buffer (20 mM Tris-HCl (pH 8.8), 2 mM EDTA, 0.2 mM PMSF, 10 mM N-ethylmaleimide) and precleared with 20 μl (50% slurry) of Protein G-agarose beads for 2 hours. Samples were then incubated overnight with 0.05 mg of an anti-collagen IV monoclonal antibody (clone M3F7) at 4° C. with vigorous shaking. Samples were incubated for 2 hours at 4° C. with shaking in the presence of goat anti-mouse IgG at a concentration in two-fold excess of that of the primary antibody. Immune complexes were precipitated for 2 hours at 4° C. with shaking using 40 μl (50% slurry) of Protein G-agarose beads.
To collect the collagen IV immune complexes, samples were centrifuged at 15,000×g for 1 minute at 4° C. […]
(§1) Radiolabeled collagen IV was separated by SDS-PAGE and visualized by autoradiography (22). […] After film development, densitometry of the resulting 206 kDa bands was calculated using NIH Image software.

Data set [2] relates to collagen IV synthesis in renal proximal tubular cells. Put plainly: Newly synthesized collagen IV (immunoprecipitation, autoradiography, densitometry). Type of data set: cell-based, rabbit. How it is done:
Immunoprecipitation of newly synthesized and deposited collagen IV was performed using the method of Niki et al., with some modifications (34). On days 1, 4, and 6 after sublethal S-(1,2-dichlorovinyl)-L-cysteine injury, renal proximal tubular cells were metabolically labeled for 24 hours with 25 μCi/ml of [^35S]-L-methionine. Cell monolayers were washed with PBS, solubilized for 30 minutes in lysis buffer (20 mM Tris-HCl (pH 8.8), 2 mM EDTA, 0.2 mM PMSF, 10 mM N-ethylmaleimide, 1% Triton X-100, 1% sodium deoxycholic acid, 150 mM NaCl, and 1 mM EGTA) containing protease inhibitors (25 μg/ml pepstatin A, 12.5 μg/ml leupeptin, 12.5 μg/ml aprotinin), and centrifuged at 15,000×g for 10 minutes at 4° C. The resulting supernatants (soluble fraction, cell-associated collagen) were transferred to fresh tubes, snap frozen in liquid N2, and stored at −80° C. […] Protein concentration in cell-associated and ECM-associated fractions was determined using a Coomassie protein microassay (Pierce, Rockford, Ill.) with BSA as the standard. […]
as §1

The conditions of data set [3]: 37° C.; cited from earlier work.

For `N[C@@H](CSC(Cl)=CCl)C(=O)O` [S-(1,2-dichlorovinyl)-L-cysteine], the “decrease in collagen IV deposition compared to controls” value in data set [1] (day 4 after DCVC, physiological AscP, not statistically significant) is on record as “approximately 50%”. Further, the “collagen IV deposition” value in data set [1] (one day after DCVC, 50 μM AscP) was “significantly inhibited”. Moreover, the “increase in collagen IV synthesis” value in data set [2] (one day after DCVC, both 50 μM and 500 μM AscP) was found to be 1.8 fold.
Regarding `O=C1O[C@H]([C@@H](O)CO)C(O)=C1OP(=O)(O)O` [L-ascorbic acid-2-phosphate, L-Ascorbic acid-2-phosphate], the “stable in culture media” value in data set [3] is not below 7 days. In addition, in data set [1] (500 μM AscP, throughout the experiment), the “collagen IV deposition in DCVC-injured RPTC” value is “maintained collagen IV deposition at levels equal to that of controls”. The “collagen IV deposition by uninjured RPTC, pharmacological vs physiological AscP” value in data set [1] (uninjured RPTC, not statistically significant) is listed as “numerical increase”. For the same molecule, the “collagen IV synthesis, 500 μM compared to 50 μM AscP” value in data set [2] (day 1, uninjured RPTC) is “decreased”.
